Tests used:
mu opioid receptor (MOR) [1] = biological target: T1, mu opioid receptor (MOR) (Homo sapiens, UniProt P35372); experiment: PathHunter β-arrestin recruitment assay, PAM mode with EC20 endomorphin-1; assay type: cell-based; conditions: for EC50: read-out: β-arr. EC50
In short: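 Enzyme fragment complementation read-out: β-gal ED fragment fused to receptor, EA fused to β-arrestin, recruitment restoring β-gal activity detected by chemiluminescence. EC50 and percent maximal response derived for each compound.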

mu opioid receptor (MOR) [2] = biological target: T1, mu opioid receptor (MOR); experiment: Hit Hunter cAMP signaling assay (adenylyl cyclase inhibition), PAM mode with EC20 endomorphin-1; assay type: cell-based
[3] = maximal response for β-arrestin recruitment
[4] = cAMP EC50, adenylyl cyclase inhibition
[5] = maximal response for adenylyl cyclase inhibition
[6] = adenylyl cyclase inhibition, read-out: cAMP EC50

T1 sequence (P35372 whole entry, the tested form may be a part): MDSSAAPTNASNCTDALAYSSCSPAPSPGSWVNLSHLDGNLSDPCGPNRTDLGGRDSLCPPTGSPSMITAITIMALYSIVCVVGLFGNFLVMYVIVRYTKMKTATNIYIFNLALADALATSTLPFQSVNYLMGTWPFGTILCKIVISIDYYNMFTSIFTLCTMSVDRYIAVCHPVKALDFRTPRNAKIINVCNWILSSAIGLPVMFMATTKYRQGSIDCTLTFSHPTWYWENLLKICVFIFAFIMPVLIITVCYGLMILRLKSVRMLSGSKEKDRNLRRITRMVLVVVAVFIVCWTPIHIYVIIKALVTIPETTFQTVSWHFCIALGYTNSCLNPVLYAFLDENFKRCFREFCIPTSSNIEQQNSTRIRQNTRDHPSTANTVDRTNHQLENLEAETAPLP

| Structure (SMILES) | β-arr Max. Resp. (mu opioid receptor (MOR) [1]; [3]) | EC50 (mu opioid receptor (MOR) [1]; β-arrestin recruitment) | EC50 (mu opioid receptor (MOR) [2]; [4]) | cAMP Max. Resp. (mu opioid receptor (MOR) [2]; [5]) | EC50 (mu opioid receptor (MOR) [2]; [6]) | β-arr Max. Resp. (mu opioid receptor (MOR) [1]; maximal response, β-arrestin recruitment) | cAMP Max. Resp. (mu opioid receptor (MOR) [2]; maximal response, adenylyl cyclase inhibition) |
| --- | --- | --- | --- | --- | --- | --- | --- |
| Fc1ccc(Cl)cc1CN1CCCCC1c1ccc(Cl)c(C(F)(F)F)c1 (stereo not shown) [compound 150] | F (F represents a maximal response of > 60%) | < 0.7 µM | < 0.7 µM | E (E represents a maximal response of 40-60%) |  |  |  |
| CCC1CCCN(c2nc(Cl)ncc2F)C1c1ccc(OC)c(Br)c1 (stereo not shown) [compound 251] | F (F represents a maximal response of > 60%) | > 2.1 µM |  | D (D represents a maximal response of < 40%) | > 2.1 µM |  |  |
| OCCNc1cccc(C2CCCCN2Cc2cc(Cl)ccc2F)n1 (stereo not shown) [compound 141] | D (D represents a maximal response of < 40%) | > 2.1 µM |  | D (D represents a maximal response of < 40%) | > 2.1 µM |  |  |
| OC1CCN(c2nc(Cl)ncc2F)C(c2cccc(C(F)(F)F)c2)C1 (stereo not shown) [compound 202] | F (F represents a maximal response of > 60%) | > 2.1 µM | > 2.1 µM | E (E represents a maximal response of 40-60%) |  |  |  |
| COc1ccc(C2CCCCN2c2ccc(Br)cn2)cc1Br (stereo not shown) [compound 231] | E (E represents a maximal response of 40-60%) | > 2.1 µM | > 2.1 µM | E (E represents a maximal response of 40-60%) |  |  |  |
| Fc1cnc(Cl)nc1N1C2CCC(C2)C1c1cccc(C(F)(F)F)n1 (stereo not shown) [compound 137] | D (D represents a maximal response of < 40%) | > 2.1 µM | > 2.1 µM | D (D represents a maximal response of < 40%) |  |  |  |
| COc1ccc(C2CCCCCN2S(=O)(=O)c2ccc(Cl)cc2)cc1Br (racemic) [compound 84] | E (E represents a maximal response of 40-60%) | > 2.1 µM |  | D (D represents a maximal response of < 40%) | > 2.1 µM |  |  |
| Fc1cnc(Cl)nc1N1CCCCC1c1ccc2cnnn2c1 (stereo not shown) [compound 291] | D (D represents a maximal response of < 40%) | > 2.1 µM | > 2.1 µM | F (F represents a maximal response of > 60%) |  |  |  |
| CCCC1CCCN(c2nc(Cl)ncc2F)C1c1cccc(C(F)(F)F)c1 (stereo not shown) [compound 247] | F (F represents a maximal response of > 60%) | > 2.1 µM |  | E (E represents a maximal response of 40-60%) | > 2.1 µM |  |  |
| COc1ccc(C2COCCN2c2nc(Cl)ncc2F)cc1Br (racemic) [Compound 187] | F (F represents a maximal response of > 60%) | > 2.1 µM |  | E (E represents a maximal response of 40-60%) | > 2.1 µM |  |  |
| FC(F)(F)c1cccc(C2CCCCN2c2ccnc(Cl)n2)n1 (stereo not shown) [compound 469] |  | > 2.1 µM | > 2.1 µM |  |  | F (F represents a maximal response of > 60%) | D (D represents a maximal response of < 40%) |
| O=S(=O)(c1cccc(Cl)c1)N1C2CCC(C2)C1c1ccc(F)c(Br)c1 (stereo not shown) [Compound 180] | F (F represents a maximal response of > 60%) | > 2.1 µM |  | E (E represents a maximal response of 40-60%) | > 2.1 µM |  |  |
| FC(F)(F)c1cccc(C2CCCCN2c2cc(Cl)ncn2)c1 (stereo not shown) [compound 360] | D (D represents a maximal response of < 40%) | < 0.7 µM | < 0.7 µM | D (D represents a maximal response of < 40%) |  |  |  |

From patent US11071731B2, “Allosteric modulators of the mu opioid receptor” (Chiromics, LLC, priority 2017, dated 2021)
